For 19 molecules, Ki results are on record in ChEMBL document CHEMBL1132660, “Three-dimensional quantitative structure-activity relationship study on cyclic urea derivatives as HIV-1 protease inhibitors: application of comparative molecular field analysis” (J Med Chem, 1999).

pKi: −log10 of the molar value.

For the experiment, the target named is Human immunodeficiency virus type 1 protease (Human immunodeficiency virus 1, UniProt Q72874). The experiment can be described thus: Inhibition of HIV-1 protease.
Regarding `COc1cccc(N2C(=O)N(Cc3cccc(C(=O)Nc4ccccn4)c3)[C@H](Cc3ccccc3)[C@H](O)[C@@H](O)[C@H]2Cc2ccccc2)c1`, the pKi was 10.33.
`COc1cccc(N2C(=O)N(Cc3cccc(C(=O)Nc4cnccn4)c3)[C@H](Cc3ccccc3)[C@H](O)[C@@H](O)[C@H]2Cc2ccccc2)c1` showed a pKi of 10.42.
Consider `Nc1cccc(N2C(=O)N(Cc3cccc(C(=O)Nc4nc5ccccc5[nH]4)c3)[C@H](Cc3ccccc3)[C@H](O)[C@@H](O)[C@H]2Cc2ccccc2)c1`, for which the pKi is 10.64.
The molecule `Nc1cccc(N2C(=O)N(Cc3cccc(C(=O)Nc4ncc[nH]4)c3)[C@H](Cc3ccccc3)[C@H](O)[C@@H](O)[C@H]2Cc2ccccc2)c1` showed a pKi of 10.92.
`Cc1ccc(NC(=O)c2cccc(CN3C(=O)N(c4cccc(N)c4)[C@H](Cc4ccccc4)[C@H](O)[C@@H](O)[C@H]3Cc3ccccc3)c2)nc1` showed a pKi of 10.12.
As for `COc1cc(OC)cc(N2C(=O)N(Cc3cccc(C(=O)Nc4cnccn4)c3)[C@H](Cc3ccccc3)[C@H](O)[C@@H](O)[C@H]2Cc2ccccc2)c1`, the pKi was 8.60.
`CC(C)(C)CCN1C(=O)N(CCC(C)(C)C)[C@H](Cc2ccccc2)[C@H](O)[C@@H](O)[C@H]1Cc1ccccc1` had a pKi of 7.44.
With `Nc1cccc(N2C(=O)N(Cc3cccc(C(=O)Nc4cnccn4)c3)[C@H](Cc3ccccc3)[C@H](O)[C@@H](O)[C@H]2Cc2ccccc2)c1`, the pKi is 10.80.
For `COc1cccc(N2C(=O)N(Cc3cccc(C(=O)Nc4cccc(C)n4)c3)[C@H](Cc3ccccc3)[C@H](O)[C@@H](O)[C@H]2Cc2ccccc2)c1`, the pKi is 10.28.
Consider `O=C(Nc1ccccn1)c1cccc(CN2C(=O)N(c3cccc([N+](=O)[O-])c3)[C@H](Cc3ccccc3)[C@H](O)[C@@H](O)[C@H]2Cc2ccccc2)c1`, for which the pKi was 10.02.
In turn, `COc1cc(OC)cc(N2C(=O)N(Cc3cccc(C(=O)Nc4ccccn4)c3)[C@H](Cc3ccccc3)[C@H](O)[C@@H](O)[C@H]2Cc2ccccc2)c1` showed a pKi of 9.07.
For `O=C(NCC1CC1)c1cccc(CN2C(=O)N(Cc3cccc(C(=O)NCC4CC4)c3)[C@H](Cc3ccccc3)[C@H](O)[C@@H](O)[C@H]2Cc2ccccc2)c1`, the pKi is 9.13.
`COc1cccc(N2C(=O)N(Cc3cccc(C(=O)Nc4ccc(C)cn4)c3)[C@H](Cc3ccccc3)[C@H](O)[C@@H](O)[C@H]2Cc2ccccc2)c1` had a pKi of 10.16.
`COc1cc(OC)cc(N2C(=O)N(Cc3cccc(C(=O)Nc4ccc(C)cn4)c3)[C@H](Cc3ccccc3)[C@H](O)[C@@H](O)[C@H]2Cc2ccccc2)c1`: the pKi was 8.72.
In the case of `O=C1N(Cc2ccc3ccccc3c2)[C@H](Cc2ccccc2)[C@H](O)[C@@H](O)[C@@H](Cc2ccccc2)N1C1CCCC1` it was 9.55; in that of `O=C(NCc1ccccc1)c1cccc(CN2C(=O)N(Cc3cccc(C(=O)NCc4ccccc4)c3)[C@H](Cc3ccccc3)[C@H](O)[C@@H](O)[C@H]2Cc2ccccc2)c1`, 9.37; in that of `CC(C)(C)NC(=O)c1cccc(CN2C(=O)N(c3cccc(N)c3)[C@H](Cc3ccccc3)[C@H](O)[C@@H](O)[C@H]2Cc2ccccc2)c1`, 9.39.
In turn, `COc1cc(OC)cc(N2C(=O)N(Cc3cccc(C(=O)Nc4cccc(C)n4)c3)[C@H](Cc3ccccc3)[C@H](O)[C@@H](O)[C@H]2Cc2ccccc2)c1` gave a pKi of 9.15.
`N#CCNC(=O)c1cccc(CN2C(=O)N(C(=O)CNC(=O)c3ccccc3)[C@H](Cc3ccccc3)[C@H](O)[C@@H](O)[C@H]2Cc2ccccc2)c1` showed a pKi of 10.62.
